Experimental data as given in publication PMC8164609 (Environmental Science and Pollution Research International, 2021).
Read-outs that look alike come from different tables or passages of the source.

Experiments:
[1] = tested on: estrogen signaling cascade; parameters: method as in Datta and Lundin-Schiller [2008]; Axon et al. [2012]; details: ref Datta and Lundin-Schiller [2008]; Axon et al. [2012]; cited from earlier work
S. cerevisiae BMA64/luc = details: values higher than 2 are considered toxic
Procedure: Yeast bioluminescent assay was performed as previously described (Omoruyi and Pohjanvirta [2018]). Two recombinant yeasts, Saccharomyces cerevisiae BMAEREluc/ERα and Saccharomyces cerevisiae BMA64/luc, were kindly provided by Dr. Johanna Rajasärkkä, Department of Food and Environmental Sciences, Faculty of Agriculture and Forestry, University of Helsinki. In the BMAEREluc/ERα, human ERα is expressed. After estrogen-like chemicals bind to ERα, the dimerized receptor binds to a specific DNA sequence called estrogen response element (ERE), in the promotor region of the luc reporter gene, inducing its expression. In BMA64/luc, the luciferase is expressed constitutively, and this strain can be used for the evaluation of cytotoxicity of test compounds.
Both strains were revived from glycerol stock solution on agar and broth forms of synthetic complete medium supplemented with the required amino acids. After the absence of contamination was confirmed by observing single colonies’ morphology on agar plate, approximately 10 μL of cultured yeasts in broth was transferred to 4 mL of synthetic defined (SD) medium supplemented with the required amino acids. The culture was incubated at 30°C on a shaker incubator (200 rpm). After 24-h incubation, the culture was diluted with SD broth to reach the optimal density (OD600) of 0.4 CFU/mL. Subsequently, the culture was incubated in the same incubation condition until the OD600 reached 0.6–0.7 CFU/mL.
Next, 90 μL of cultured yeasts containing 1:20 luciferin solution (0.042 g luciferin dissolved in 9.75 mL of 0.2 M trisodium citrate, and 5.525 mL of 0.2 M citrate, pH 5) was pipetted into every well of a white 96-well flat-bottom plate, and 10 μL of test compounds in a defined concentration range (diluted in 5% EtOH) were added. The plate was incubated at 30°C for approximately 2.5 h, and was then shaken briefly. The luminescence measurement was performed with Luminoskan Ascent microplate luminometer (Thermo Labsystems) using the recommended settings as follows: 1000 ms integration time, single measurement mode, shaking at 60 rpm for 5 s prior to measurement.
Each concentration of test compounds and controls in the assay was tested in triplicate, and the experiment was performed twice.
* The Correction Factor is the luminescence of the strain BMA64/luc with blank solvent divided by the luminescence of the control strain with the sample. Values higher than 2 are considered toxic (Leskinen et al. 2005).
* The Correction Factor is the luminescence of the strain BMA64/luc with blank solvent divided by the luminescence of the control strain with the sample. Values higher than 2 are considered toxic (Leskinen et al. 2005). […] Each experiment was performed in triplicate.

MCF-7 cells = assay: LDH cytotoxicity test; details: 24 h, up to 10^−4 M
Procedure: Cytotoxicity was assessed by lactate dehydrogenase (LDH) release. For LDH measurement, Pierce LDH Cytotoxicity Assay Kit (Thermo Scientific, Rockford, USA) was used. MCF-7 cells were seeded at 2.8×10^5 in a transparent 96-well plate, and corner cells of the plate were filled with PBS to prevent the edge effect. SF medium containing DMEM without phenol red, 1% charcoal-stripped FBS, and 4 mM L-glutamine were used for this assay. Plates were incubated for 24 h, and then the cells were treated with test compounds at concentrations ranging from 10^−14 to 10^−4 M or vehicle for another 24 h. On day 3, culture supernatant was collected in a separate 96-well plate, and the assay was continued according to the manufacturer’s instructions. Final absorbance was measured with the microplate reader at 490 and 680 nm. […] Vehicle control was 0.1% EtOH or DMSO. All the exposures were in triplicate, and the experiment was carried out twice.

mice = tested on: mice; parameters: method as in Poul et al. [2009]; details: 20, 200 or 1000 mg/kg twice, 24-h interval, oral gavage; ref Poul et al. [2009]; cited from earlier work
[2] = Estimated human serum concentration from dietary exposure; details: 7.3 mg/kg body weight/day as bolus, 2% absorbed, even distribution, maximum reduced by 50%
Procedure: Tartrazine has been classified as a xenoestrogen that can bind to ERα in the MCF-7 cell line (Axon et al. [2012]). […] This raises the question whether tartrazine could create any estrogenic effect in humans at its prevailing serum concentrations. Based on the data published by EFSA, the 95th or 97.5th percentile exposure levels for human is 7.3 mg/kg body weight/day (EFSA [2009]).

O=C([O-])C1=NN(c2ccc(S(=O)(=O)[O-])cc2)C(=O)C1N=Nc1ccc(S(=O)(=O)[O-])cc1.[Na+].[Na+].[Na+] (stereo not shown) [tartrazine]
concentration range of estrogenic effect in vitro [1]: 1 to 10000 pM | Correction Factor (S. cerevisiae BMA64/luc; 5% DMSO, 10^−4 M): 3.05±0.70 | Correction Factor (S. cerevisiae BMA64/luc; 5% DMSO, 10^−6 M): 2.77±0.44 | Correction Factor (S. cerevisiae BMA64/luc; 5% DMSO, 10^−8 M): 2.05±0.32 | Correction Factor (S. cerevisiae BMA64/luc; 5% DMSO, 10^−10 M): 2.60±0.54 | Correction Factor (S. cerevisiae BMA64/luc; 5% DMSO, 10^−12 M): 3.09±0.57 | Correction Factor (S. cerevisiae BMA64/luc; 5% DMSO, 10^−14 M): 3.43±0.66 | Correction Factor (S. cerevisiae BMA64/luc; 5% ethanol, 10^−4 M): 0.99±0.08 | Correction Factor (S. cerevisiae BMA64/luc; 5% ethanol, 10^−6 M): 0.94±0.12 | Correction Factor (S. cerevisiae BMA64/luc; 5% ethanol, 10^−8 M): 0.95±0.09 | Correction Factor (S. cerevisiae BMA64/luc; 5% ethanol, 10^−10 M): 1.36±0.30 | Correction Factor (S. cerevisiae BMA64/luc; 5% ethanol, 10^−12 M): 1.10±0.26 | Correction Factor (S. cerevisiae BMA64/luc; 5% ethanol, 10^−14 M): 1.14±0.23 | maximum level of cytotoxicity (LDH release) (MCF-7 cells): less than 2.5% | mutagenic or cytotoxic effects in mice (mice): did not elicit mutagenic or cytotoxic effects | estimated serum concentration [2]: 137 nM
